Read-outs that look alike come from different tables or passages of the source.
Experiments:
DU145 (prostate cancer) = assay: Effect of compounds on tumor cell lines (assay of Latham et al.), DU145; format: cell-based; conditions: DU145 cells, read-out: DU 145 potency (IC50)
Method in brief: (§1)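 After 96 h of exposure to compound (1–100 μM in DMSO; one compound at 0.1–100 μM), effects were scored by inverted-microscope inspection, with trypan blue viable counts by hemacytometer when required. Cells were seeded at 2.5×10^4 per well and dosed 24 h after plating.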

[1] = system: K562 (chronic myelogenous leukaemia); assay: Effect of compounds on tumor cell lines (assay of Latham et al.), K562; format: cell-based; conditions: K562 cells, read-out: K 562 potency (IC50)
Method in brief: as §1

[2] = 96 hours after treatment, 1 μM to 100 μM
[3] = Table 3, examined 96 hours after treatment, 1 μM to 100 μM in DMSO
[4] = Homo sapiens, DU-145, Table 4, examined 96 hours after treatment, 1 μM to 100 μM in DMSO
[5] = Homo sapiens, Table 4, examined 96 hours after treatment, 1 μM to 100 μM in DMSO
[6] = Table 4, examined 96 hours after treatment, 1 μM to 100 μM in DMSO

Row | SMILES | IC50 (DU145 (prostate cancer); [2]) [µM] | IC50 [1, 2] [µM] | other results
1 | O=C(C(=Cc1ccc(C(F)(F)F)cc1)SCc1ccc(Cl)cc1)c1ccc(Cl)cc1 [Example 327] | 1 to 10 | 1 to 10 | 
2 | O=C(O)c1ccc(C(=O)C(=Cc2ccc(N3CCN(Cc4ccccc4)CC3)c([N+](=O)[O-])c2)SCc2ccc(F)cc2)cc1 [Example 328] | 1 to 10 | 1 to 10 | 
3 | O=C(C(=Cc1ccc(C(=O)N2CCN(CCO)CC2)cc1)SCc1ccc(F)cc1)c1ccc(F)c([N+](=O)[O-])c1 [Example 331] | 1 to 10 | ≤ 1 | 
4 | Nc1ccc(/C=C(/SCc2ccc(F)cc2)C(=O)c2ccc(C(=O)O)cc2)cc1[N+](=O)[O-] [Example 333] | 10 to 25 | 10 to 25 | 
5 | Cc1ccc(S(=O)(=O)Oc2ccc(C(=O)/C(=C\c3ccc(F)c([N+](=O)[O-])c3)SCc3ccc(F)cc3)cc2)cc1 [Example 336] | 1 to 10 | 1 to 10 | 
6 | CCN(CC)CCOc1ccc(C(=O)/C(=C\c2ccc(F)c([N+](=O)[O-])c2)SCc2ccc(F)cc2)cc1 [Example 338] | 1 to 10 | ≤ 1 | 
7 | O=C(/C(=C\c1ccc(F)c([N+](=O)[O-])c1)SCc1ccc(F)cc1)c1ccc(OCCCN2CCOCC2)cc1 [Example 340] | 1 to 10 | 1 to 10 | 
8 | NS(=O)(=O)c1ccc(C(=O)/C(=C\c2ccc(F)c([N+](=O)[O-])c2)SCc2ccc(F)cc2)cc1 [Example 343] | 1 to 10 | 1 to 10 | 
9 | Cc1ccc(CS/C(=C/c2ccc(F)c([N+](=O)[O-])c2)C(=O)c2ccc(Cl)c([N+](=O)[O-])c2)cc1 [Example 349] | 1 to 10 | ≤ 1 | 
10 | O=C(O)c1ccc(C(=O)/C(=C\c2ccc(F)c([N+](=O)[O-])c2)SCc2nc3ccc(Br)cc3[nH]2)cc1 [Example 352] | 1 to 10 | 1 to 10 | 
11 | COc1cc(OC)c(/C=C(\C(=O)c2ccc(Cl)cc2)[S+]([O-])Cc2ccccc2Cl)c(OC)c1 (stereo not shown) [Example 354] |  |  | IC50 (DU145 (prostate cancer); [3]): 10 to 25 µM; IC50 [1, 3]: 50 to 100 µM
12 | O=C(/C(=C\c1ccc(F)cc1C(F)(F)F)[S+]([O-])Cc1ccc(Cl)cc1)c1ccc(Cl)cc1 (stereo not shown) [Example 355] |  |  | IC50 (DU145 (prostate cancer); [3]): 50 to 100 µM; IC50 [1, 3]: 50 to 100 µM
13 | O=C(/C(=C\c1ccc(O)c([N+](=O)[O-])c1)S(=O)(=O)Cc1ccccc1Cl)c1ccc(Cl)cc1 [Example 362] |  |  | melting point: 222 to 226 °C
14 | COc1ccc(/C=C(\C(=O)c2ccc(Cl)cc2)S(=O)(=O)Cc2ccccc2Cl)cc1 [Example 363] |  |  | melting point: 195 to 210 °C
15 | O=C(/C(=C\c1cc(Br)c(O)c(Br)c1)S(=O)(=O)Cc1ccc(Br)cc1)c1ccc(Br)cc1 [Example 368] |  |  | IC50 (DU145 (prostate cancer); [4]): 25 to 50 µM; IC50 [1, 5]: 25 to 50 µM
16 | O=C(/C(=C\c1cc(Cl)c(O)c(Cl)c1)S(=O)(=O)Cc1ccc(Br)cc1)c1ccc(Br)cc1 [Example 369] |  |  | IC50 (DU145 (prostate cancer); [4]): 25 to 50 µM; IC50 [1, 5]: 25 to 50 µM
17 | CCN(CC)CCNC(=O)c1c(C)[nH]c(/C=C(\C(=O)c2ccc(Br)cc2)S(=O)(=O)Cc2ccc(Br)cc2)c1C [Example 370] |  |  | IC50 (DU145 (prostate cancer); [6]): 1 to 10 µM; IC50 [1, 6]: 1 to 10 µM
18 | O=C(O)c1ccc(C(=O)/C(=C\c2ccc(Cl)c([N+](=O)[O-])c2)S(=O)(=O)Cc2ccc(Br)cc2)cc1 [Example 372] |  |  | IC50 (DU145 (prostate cancer); [4]): 25 to 50 µM; IC50 [1, 5]: 25 to 50 µM
19 | O=C(/C(=C\c1ccc(O)c([N+](=O)[O-])c1)S(=O)(=O)Cc1ccc(Br)cc1)c1c(F)c(F)c(F)c(F)c1F [Example 373] |  |  | IC50 (DU145 (prostate cancer); [6]): 50 to 100 µM; IC50 [1, 6]: 50 to 100 µM
20 | CN(C)c1ccc(/C=C(\C(=O)c2ccc(C(=O)O)cc2)S(=O)(=O)Cc2ccc(Cl)cc2)cc1 [Example 390] |  |  | melting point: 176 to 180 °C
21 | O=C(/C(=C\c1ccc(O)c([N+](=O)[O-])c1)S(=O)(=O)Cc1ccc(Cl)cc1)c1ccc(Cl)cc1 [Example 393] |  |  | IC50 (DU145 (prostate cancer); [6]): 25 to 50 µM; IC50 [1, 6]: 25 to 50 µM
22 | O=C(/C(=C\c1ccccc1OCc1ccccc1)S(=O)(=O)Cc1ccc(F)cc1)c1ccc(Cl)cc1 [Example 402] |  |  | melting point: 139 to 145 °C
23 | COc1ccccc1/C=C(\C(=O)c1ccc(Br)cc1)S(=O)(=O)Cc1ccc(F)cc1 [Example 404] |  |  | melting point: 145 to 151 °C
24 | O=C(/C(=C\c1ccc(Br)cc1)S(=O)(=O)Cc1ccc(F)cc1)c1ccc(Cl)cc1 [Example 410] |  |  | IC50 (DU145 (prostate cancer); [4]): > 100 µM; IC50 [1, 5]: 50 to 100 µM
25 | COc1ccccc1/C=C(\C(=O)c1ccc(Cl)cc1)S(=O)(=O)Cc1ccc(C)cc1 [Example 428] |  |  | IC50 (DU145 (prostate cancer); [4]): 10 to 25 µM; IC50 [1, 5]: 10 to 25 µM
26 | CSc1ccc(/C=C(\C(=O)c2ccc(Br)cc2)S(=O)(=O)Cc2ccc(C)cc2)cc1 [Example 436] |  |  | IC50 (DU145 (prostate cancer); [4]): 10 to 25 µM; IC50 [1, 5]: 10 to 25 µM
27 | COC(=O)c1ccc(C(=O)/C(=C\c2ccc(F)c([N+](=O)[O-])c2)SCc2ccc(Br)cc2)cc1 [Example 441, (E)-methyl-4-(2-(4-bromobenzylthio)-3-(4-fluoro-3-nitrophenyl)acryloyl)benzoate] |  |  | IC50 (DU145 (prostate cancer); Homo sapiens, DU-145, Table 5, examined 96 hours after treatment, 0.1 μM to 100 μM in DMSO): ≤ 1 µM; IC50 ([1]; Homo sapiens, Table 5, examined 96 hours after treatment, 0.1 μM to 100 μM in DMSO): ≤ 1 µM

Second part, led by results:

Row | IC50 (DU145 (prostate cancer); [2]) [µM] | IC50 [1, 2] [µM] | SMILES | other results
28 | 1 to 10 | 1 to 10 | O=C(C(=Cc1ccc([N+](=O)[O-])cc1)SCc1ccc(Cl)cc1)c1ccc(Cl)cc1 [Example 326] | 
29 | 1 to 10 | ≤ 1 | CN1CCN(CCNc2ccc(C=C(SCc3ccc(F)cc3)C(=O)c3ccc(F)cc3)cc2[N+](=O)[O-])CC1 [Example 329] | 
30 | 1 to 10 | ≤ 1 | O=C(C(=Cc1ccc(N2CCN(CCO)CC2)c([N+](=O)[O-])c1)SCc1ccc(F)cc1)c1ccc(F)cc1 [Example 330] | 
31 | 10 to 25 | 1 to 10 | CC(=O)Nc1ccc(/C=C(/SCc2ccc(F)cc2)C(=O)c2ccc(C(=O)O)cc2)cc1[N+](=O)[O-] [Example 332] | 
32 | > 100 | > 100 | O=C(O)c1ccc(C(=O)/C(=C\c2ccc(Br)cc2)SCc2ccc(F)cc2)cc1 [Example 334] | 
33 | 10 to 25 | 1 to 10 | O=C(/C(=C\c1ccc(F)c([N+](=O)[O-])c1)SCc1ccc(F)cc1)c1ccc(SCc2ccc(F)cc2)c([N+](=O)[O-])c1 [Example 335] | 
34 | 10 to 25 | 10 to 25 | CN1CCN(CCNC(=O)c2ccc(C(=O)/C(=C\c3ccc(F)c([N+](=O)[O-])c3)SCc3ccc(F)cc3)cc2)CC1 [Example 337] | 
35 | 1 to 10 | 1 to 10 | CC1=CC(=O)C(C)=C(C(C)(C)CC(=O)Oc2ccc(C(=O)/C(=C\c3ccc(F)c([N+](=O)[O-])c3)SCc3ccc(F)cc3)cc2)C1=O [Example 339] | 
36 | 1 to 10 | ≤ 1 | O=C(/C(=C\c1ccc(F)c([N+](=O)[O-])c1)SCc1ccc(F)cc1)c1ccc(F)cc1 [Example 341] | 
37 | ≤ 1 | ≤ 1 | O=C(/C(=C\c1ccc(F)c([N+](=O)[O-])c1)SCc1ccc(F)cc1)c1ccc(O)cc1 [Example 342] | 
38 | 1 to 10 | ≤ 1 | O=C(/C(=C\c1ccc(F)c([N+](=O)[O-])c1)SCc1ccc(F)cc1)c1ccccc1 [Example 344] | 
39 | 10 to 25 | 1 to 10 | COc1ccc(CS/C(=C/c2ccc(F)cc2)C(=O)c2ccc(Cl)cc2)cc1 [Example 345] | 
40 | 10 to 25 | 1 to 10 | COc1ccc(/C=C(/SCc2ccc(OC)cc2)C(=O)c2ccc(Cl)cc2)cc1 [Example 346] | 
41 | 1 to 10 | ≤ 1 | Cc1ccc(CS/C(=C/c2ccc(F)c([N+](=O)[O-])c2)C(=O)c2ccc(C(=O)O)cc2)cc1 [Example 347] | 
42 | 10 to 25 | 1 to 10 | Cc1ccc(CS/C(=C/c2ccc(F)c([N+](=O)[O-])c2)C(=O)c2ccc(C(=O)O)cc2)cc1 [Example 348] | 
43 | 1 to 10 | 1 to 10 | O=C(O)c1ccc(C(=O)/C(=C\c2ccc(Cl)c([N+](=O)[O-])c2)SCc2ccc(C(F)(F)F)cc2)cc1 [Example 350] | 
44 | 1 to 10 | ≤ 1 | O=C(O)c1ccc(C(=O)/C(=C\c2ccc(F)c([N+](=O)[O-])c2)SCc2ccc(C(F)(F)F)cc2)cc1 [Example 351] | 
45 | 1 to 10 | ≤ 1 | O=C(O)c1ccc(C(=O)/C(=C\c2ccc(F)c([N+](=O)[O-])c2)SCc2ccccc2)cc1 [Example 353] | 
